Data from the NIST ThermoML archive (doi:10.1016/j.jct.2005.03.016).

Settings: Liquid, Vibrating tube method

CCO [ethanol]
mass density [kg/m3]
Settings	100 kPa	5000 kPa	10000 kPa	15000 kPa	20000 kPa	25000 kPa	30000 kPa	35000 kPa	40000 kPa	45000 kPa
283.15 K	798	802	805.9	809.5	813	816.4	819.7	822.8	825.9	828.8
293.15 K	789.5	793.7	797.8	801.6	805.3	808.9	812.3	815.6	818.7	821.8
303.15 K	780.9	785.3	789.6	793.7	797.5	801.3	804.8	808.2	811.5	814.7
313.15 K	772.1	776.8	781.3	785.6	789.6	793.5	797.2	800.8	804.2	807.6
323.15 K	763.3	768.3	773	777.6	781.8	785.9	789.7	793.5	797.1	800.5
333.15 K	754	759.3	764.3	769.1	773.6	777.8	781.9	785.8	789.5	793.1
343.15 K	744.5	750.1	755.5	760.5	765.3	769.8	774	778.1	782	785.7
353.15 K	–	740.6	746.4	751.7	756.7	761.5	766	770.2	774.3	778.2

CC1CCCCC1 [methylcyclohexane]
mass density [kg/m3]
Settings	100 kPa	5000 kPa	10000 kPa	15000 kPa	20000 kPa	25000 kPa	30000 kPa	35000 kPa	40000 kPa	45000 kPa
283.15 K	777.6	781.4	785.2	788.7	792.1	795.3	798.5	801.5	804.4	807.3
293.15 K	769	773	777	780.7	784.3	787.8	791.1	794.2	797.3	800.2
303.15 K	760.4	764.7	768.9	772.8	776.6	780.2	783.7	787	790.2	793.3
313.15 K	751.7	756.2	760.7	764.8	768.8	772.7	776.3	779.8	783.1	786.4
323.15 K	742.9	747.7	752.5	756.9	761.1	765.1	769	772.6	776.1	779.5
333.15 K	733.9	739	744.1	748.8	753.3	757.5	761.5	765.4	769	772.5
343.15 K	724.8	730.4	735.8	740.8	745.6	750	754.2	758.2	762.1	765.7
353.15 K	715.7	721.7	727.4	732.8	737.8	742.5	747	751.2	755.2	759
